Tests used:
[1] = target: T1, Splicing factor 3B subunit 3 (Homo sapiens, UniProt Q15393); assay: (§1) Inhibition of SAP130 in VEGF-stimulated human U251 cells by PLAP reporter gene assay; assay type: cell-based, U-251
T1 sequence (Q15393 whole entry): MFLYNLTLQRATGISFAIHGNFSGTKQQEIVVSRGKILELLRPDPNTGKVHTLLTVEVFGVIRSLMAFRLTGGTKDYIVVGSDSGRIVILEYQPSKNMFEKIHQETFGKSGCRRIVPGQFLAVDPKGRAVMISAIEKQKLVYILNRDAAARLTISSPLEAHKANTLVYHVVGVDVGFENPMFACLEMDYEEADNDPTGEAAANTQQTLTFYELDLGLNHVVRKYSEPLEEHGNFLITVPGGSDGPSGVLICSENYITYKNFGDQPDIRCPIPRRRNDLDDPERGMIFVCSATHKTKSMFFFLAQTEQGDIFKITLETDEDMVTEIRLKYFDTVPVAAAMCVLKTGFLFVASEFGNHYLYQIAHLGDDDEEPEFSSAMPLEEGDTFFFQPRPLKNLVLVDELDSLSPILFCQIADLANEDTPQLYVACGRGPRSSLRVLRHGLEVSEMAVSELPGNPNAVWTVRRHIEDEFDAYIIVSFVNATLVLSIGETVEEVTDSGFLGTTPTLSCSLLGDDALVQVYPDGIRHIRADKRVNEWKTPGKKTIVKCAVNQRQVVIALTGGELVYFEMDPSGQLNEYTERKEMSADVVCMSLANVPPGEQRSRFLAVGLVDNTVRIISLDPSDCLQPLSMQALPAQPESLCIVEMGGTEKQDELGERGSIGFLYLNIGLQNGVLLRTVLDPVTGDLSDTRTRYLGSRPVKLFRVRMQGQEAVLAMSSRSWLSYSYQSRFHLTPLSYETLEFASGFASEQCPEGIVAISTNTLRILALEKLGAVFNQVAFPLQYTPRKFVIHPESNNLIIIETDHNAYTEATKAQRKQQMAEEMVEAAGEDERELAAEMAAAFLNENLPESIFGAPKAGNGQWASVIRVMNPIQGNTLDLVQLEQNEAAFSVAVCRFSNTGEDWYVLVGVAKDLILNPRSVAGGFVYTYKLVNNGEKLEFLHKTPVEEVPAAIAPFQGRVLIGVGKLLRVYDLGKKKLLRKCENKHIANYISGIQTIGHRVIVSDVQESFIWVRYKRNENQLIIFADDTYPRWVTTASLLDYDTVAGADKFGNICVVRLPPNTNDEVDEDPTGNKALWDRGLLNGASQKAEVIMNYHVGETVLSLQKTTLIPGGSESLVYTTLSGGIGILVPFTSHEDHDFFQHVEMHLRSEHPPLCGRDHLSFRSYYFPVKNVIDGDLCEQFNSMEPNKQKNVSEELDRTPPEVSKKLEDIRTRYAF

[2] = target: T2, Splicing factor 3B subunit 3 (Homo sapiens) (UniProt Q15393); assay: Displacement of [3H]probe from SAP130 in human WiDr cell immunoprecipitate sample assessed as radioactive intensity at 10 uM after 1 hr by scintillation counting
T2 sequence (whole entry): T1 sequence (Q15393 whole entry)

[3] = target: Splicing factor 3B subunit 1 / PHD finger-like domain-containing protein 5A (Homo sapiens, UniProt O75533+Q7RTV0); assay: as §1; assay type: cell-based, U-251; conditions: u-251
Chain of Splicing factor 3B subunit 1 / PHD finger-like domain-containing protein 5A (O75533 whole entry, the tested form may be a part): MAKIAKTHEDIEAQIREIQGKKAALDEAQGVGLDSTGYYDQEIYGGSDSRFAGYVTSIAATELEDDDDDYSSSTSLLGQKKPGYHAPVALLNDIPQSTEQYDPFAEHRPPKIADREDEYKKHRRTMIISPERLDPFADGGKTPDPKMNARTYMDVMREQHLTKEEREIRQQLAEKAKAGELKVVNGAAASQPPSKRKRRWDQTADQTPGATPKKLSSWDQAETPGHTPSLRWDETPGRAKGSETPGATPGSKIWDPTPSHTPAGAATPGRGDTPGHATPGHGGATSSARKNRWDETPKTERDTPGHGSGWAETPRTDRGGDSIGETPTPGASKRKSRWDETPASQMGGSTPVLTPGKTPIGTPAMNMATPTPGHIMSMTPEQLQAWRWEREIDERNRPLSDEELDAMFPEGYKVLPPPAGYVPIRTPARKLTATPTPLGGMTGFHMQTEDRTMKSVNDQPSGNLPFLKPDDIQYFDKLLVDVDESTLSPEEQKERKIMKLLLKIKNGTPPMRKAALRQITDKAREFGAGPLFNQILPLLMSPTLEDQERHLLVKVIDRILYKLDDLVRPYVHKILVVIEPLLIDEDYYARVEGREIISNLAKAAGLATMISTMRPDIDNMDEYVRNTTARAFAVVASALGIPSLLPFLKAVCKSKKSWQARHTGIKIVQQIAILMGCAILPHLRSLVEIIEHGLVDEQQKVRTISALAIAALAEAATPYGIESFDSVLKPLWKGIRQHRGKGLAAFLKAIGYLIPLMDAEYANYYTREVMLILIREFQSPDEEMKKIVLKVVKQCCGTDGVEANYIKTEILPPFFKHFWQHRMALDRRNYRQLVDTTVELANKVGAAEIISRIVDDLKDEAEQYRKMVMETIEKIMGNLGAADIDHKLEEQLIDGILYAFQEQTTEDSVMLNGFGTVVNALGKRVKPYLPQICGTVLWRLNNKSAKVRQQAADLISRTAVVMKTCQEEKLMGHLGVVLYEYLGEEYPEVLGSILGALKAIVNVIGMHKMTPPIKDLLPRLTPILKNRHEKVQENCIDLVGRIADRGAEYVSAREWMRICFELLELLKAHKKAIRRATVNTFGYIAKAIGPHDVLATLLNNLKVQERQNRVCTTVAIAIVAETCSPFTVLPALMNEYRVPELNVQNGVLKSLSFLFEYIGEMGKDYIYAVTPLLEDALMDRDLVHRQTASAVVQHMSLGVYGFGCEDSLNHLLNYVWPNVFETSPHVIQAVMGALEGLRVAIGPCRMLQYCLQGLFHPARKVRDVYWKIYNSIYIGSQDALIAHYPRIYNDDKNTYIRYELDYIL
Chain of Splicing factor 3B subunit 1 / PHD finger-like domain-containing protein 5A (Q7RTV0 2-110 limits assumed): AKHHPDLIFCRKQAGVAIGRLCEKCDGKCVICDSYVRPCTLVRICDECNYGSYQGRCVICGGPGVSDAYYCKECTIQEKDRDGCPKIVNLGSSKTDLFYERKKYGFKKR

## CC(/C=C/C(=O)NO)=C\[C@@H](C)C(=O)c1ccc(N(C)C)cc1 [TRICHOSTATIN]
[1]
  IC50: 611 nM

## CC(=O)N[C@@H](CSC(=O)[C@]1([C@@H](O)C(C)C)NC(=O)[C@H](C)[C@@H]1O)C(=O)O [LACTACYSTIN]
[2]
  Activity: < 50%
[3]
  IC50: 3480 nM

## C=CC[C@@H]1/C=C(\C)C[C@H](C)C[C@H](OC)[C@H]2O[C@@](O)(C(=O)C(=O)N3CCCC[C@H]3C(=O)O[C@H](/C(C)=C/[C@@H]3CC[C@@H](O)[C@H](OC)C3)[C@H](C)[C@@H](O)CC1=O)[C@H](C)C[C@@H]2OC [TACROLIMUS ANHYDROUS]
[3]
  IC50: 13.8 nM

Reference: ChEMBL document CHEMBL1240330, “Splicing factor SF3b as a target of the antitumor natural product pladienolide” (Nat Chem Biol, 2007)
